Results published in patent publication US7605227B2, “Melanoma antigen peptide analogues” (MannKind Corporation, priority 2005, dated 2009).
Entries after “also recorded” stand apart in the source; their conditions may differ. Square brackets hold non-standard residues; d marks the D form. Ends that are not written are not given here. Nle = CCCC[C@H](N)C(=O)O; Nva = CCC[C@H](N)C(=O)O

How the values were obtained:
HLA-A*0201 [1] = biological target: T1, HLA-A*0201 (Homo sapiens, UniProt P04439, D140Y/D185E/D98H/E176V/E277Q/G131W/G231S/I119V/I121R/I166T/I218V/L300P/L318F/N151K/N90K/P208A/P217A/Q86G/Q94H/R138H/R169H/T345S); assay: Peptide binding using T2 cells (SSX-2 41-49 analogs); conditions: half maximal binding of wild-type peptide relative to analog; native = 1.0
Source text: Thus, at limiting concentrations of peptide, it is a measurement of Kon mostly and at saturation levels of peptide it is a measurement of both Kon and Koff.

[2] = tested on: T cell lines against a natural (non-mutated) epitope (SSX-241-49); assay: Cross-reactivity and functional avidity: IFN-gamma from T cell lines against natural SSX-2 41-49 epitope; format: cell-based, HHD transgenic mice; conditions: IFN-gamma from T cell line raised against native SSX-2 41-49; native = 1, lower = more active;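 note: peptide analogs tested ex vivo with competent APCs, IFN-gamma in supernatant measured by ELISA, readouts include minimal triggering concentration, peak effect and concentration at peak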
624.38 melanoma cells = assay: Plasmid prime, SSX-2 peptide boost, ex vivo cytotoxicity against human tumor cells; format: in vivo, mice; conditions: ex vivo after boost
Method: Eight groups of mice (n=4) were immunized with plasmid expressing SSX-241-49 natural epitope by direct inoculation into the inguinal lymph nodes with 25 μg in 25 μl of PBS/each lymph node at day 0, 3, 14 and 17. This was followed by two additional peptide boosts (similar amount) at day 28 and 31, using a negative control peptide (Melan A 26-35 “EAA”), natural peptide or analogs as shown in FIG. 9.

HLA-A*0201 [3] = biological target: T1, HLA-A*0201; assay: iTopia affinity assay (ED50); format: binding; conditions: PRAME425-433 analogs
Source text: Avidin-coated microtiter plates containing class I monomer loaded with a so-called placeholder peptide were used to evaluate peptide binding, affinity and off-rate. The monomer-coated plates were supplied as part of the iTopia Epitope Discovery System Kit (Beckman Coulter, Inc., San Diego, Calif., USA). Assay buffers, anti-MHC-FITC mAb and beta2-microglobulin and control peptides were also supplied with the kits.
Plates were read on the fluorometer. Sigmoidal dose response curves were generated using Prism software.

[4] = tested on: target cells coated with natural peptide; assay: Plasmid prime, SSX-2 peptide boost, in vivo cytotoxicity (CFSE); design: species or system HHD mice; conditions: spleen and blood; targets coated with 20 μg/ml and 1 μg/ml natural peptide
Method: Eight groups of mice (n=4) were immunized with plasmid expressing SSX-241-49 natural epitope, by direct inoculation into the inguinal lymph nodes with 25 μg in 25 μl of PBS/each lymph node at day 0, 3, 14 and 17. This was followed by two additional peptide boosts (similar amount) at day 28 and 31, using a negative control peptide (Melan A 26-35 “EAA”), natural peptide or analogs as shown in FIG. 9.
To evaluate the in vivo response against natural peptide, splenocytes were isolated from littermate control HHD mice and incubated with 20 μg/mL or 1 μg/ml of natural peptide for 2 hours. These cells were then stained with CFSE^hi fluorescence (4.0 μM or 1 μM for 15 minutes) and intravenously co-injected into immunized mice with an equal number of control splenocytes stained with CFSE^lo fluorescence (0.4 μM). Eighteen hours later the specific elimination of target cells was measured by removing spleen and PBMC from challenged animals and measuring CFSE fluorescence by flow cytometry. The relative depletion of the populations corresponding to peptide loaded splenocytes was calculated relative to the control (unloaded) population and expressed as % specific lysis. FIGS. 10 (spleen) and 11 (blood) show the in vivo cytotoxicity elicited by the regimens described in FIG. 7.

[5] = tested on: T cells that recognized native PSMA288-297 peptide; assay: Peptide immunization with PSMA analogs, IFN-gamma ELISPOT against native peptide; format: in vivo, HHD transgenic mice; conditions: peptide + pI:C intranodal immunization
Method: Groups of HHD transgenic mice (n=8) were immunized with peptide (natural epitope PSMA288-297, or analogs bearing substitutions at primary or secondary anchor residues) by direct inoculation into the inguinal lymph nodes, with 25 μg in 25 μl of PBS+12.5 μg of pI:C to each lymph node at day 0, 3, 14 and 17.
Mice were sacrificed at 10 days after the last boost, and splenocytes prepared and assessed for IFN-γ production by ELISPOT analysis. […] At 48 hours after incubation, the assay was developed and the frequency of cytokine-producing T cells that recognized native PSMA288-297 peptide was automatically counted. The data is represented in FIG. 22 as the number of spot forming colonies/well (mean of triplicates±SD). […] To the extent that the poor immunogenicity of the native epitope reflects tolerance, the improved activity of these analogs represents tolerance breaking.

[6] = tested on: target cells coated with wild-type peptide; assay: Plasmid prime, NY-ESO-1 peptide boost, in vivo cytotoxicity (CFSE); design: species or system HHD mice; conditions: plasmid entrain, peptide amplify; targets coated with wild-type NY-ESO-1 peptide
Method: These cells were then stained with CFSE^hi and CFSE^med fluorescence (4.0 μM or 1 μM, respectively, for 15 minutes) and intravenously co-injected into immunized mice with an equal number of control splenocytes stained with CFSE^lo fluorescence (0.4 μM). Eighteen hours later the specific elimination of target cells was measured by removing the spleens and PBMC from challenged animals and measuring CFSE fluorescence by flow cytometry. The relative depletion of the populations corresponding to peptide loaded splenocytes was calculated relative to the control (unloaded) population and expressed as % specific lysis.

[7] = tested on: splenocytes stimulated with wild-type peptide NY-ESO-1157-165; assay: NY-ESO-1 boost, ex vivo IFN-gamma production by splenocytes (ELISA); format: in vivo, mice; conditions: 10 μM wild-type peptide, 3 and 6 days
Source text: Supernatants were harvested and the concentration of IFN-γ measured by ELISA.

[8] = tested on: T cell line specific for the native epitope (PRAME425-433); assay: Cross-reactivity of PRAME425-433 analogs: IFN-gamma from native-epitope-specific T cell line; format: cell-based
Method: The analogs listed in FIGS. 26-28 were tested for various properties such as improved affinity and stability of binding, cross-reactivity with the native epitope, and immunogenicity as follows in Examples 40-48. […] The observed affinities of the analogs are reported as % binding (compared to the positive control) and ED50, and stability of binding as half time of dissociation. Cross reactivity with the native epitope was assessed by using the analog peptides to stimulate IFN-gamma secretion from a T cell line specific for the native epitope, essentially as described in Example 6. The data shown in FIGS. 26-28 were generated by stimulating with analog peptide at approximately 0.3 μM. […] In some cases, the reported values are the average of two determinations.

[9] = tested on: PRAME+ A2+ 624.38 melanoma cells; assay: PRAME immunization, ex vivo cytotoxicity against human tumor cells; format: in vivo, HHD transgenic mice; conditions: for ex vivo cytotoxicity against A2+ PRAME+ 624.38 cells, in words: mouse
Method: This was followed by two peptide boosts (2.5 μg) at day 28 and 31, with the analog L426Nva L433Nle.

[10] = tested on: splenocytes stimulated with native peptide; assay: pCTLR2 prime, PRAME peptide boost, ex vivo IFN-gamma ELISA; format: in vivo, HHD transgenic mice; conditions: 2.5 μg peptide boost, 10 μg/ml native peptide, 48 hours
[11] = tested on: native epitope coated cells; assay: pCTLR2 prime, PRAME peptide boost, in vivo cytotoxicity (CFSE); design: species or system HHD transgenic mice
[12] = tested on: PRAME425-433-specific T cells; assay: pCTLR2 prime, PRAME peptide boost, tetramer/CD8 co-staining; format: in vivo, HHD transgenic mice; conditions: versus boost with negative control peptide

Compound: CC[C@H](C)[C@H](NC(=O)[C@H](Cc1ccc(O)cc1)NC(=O)[C@H](Cc1ccccc1)NC(=O)[C@@H](NC(=O)[C@H](CCCCN)NC(=O)[C@H](CCC(=O)O)NC(=O)[C@H](CO)NC(=O)[C@@H](NC(=O)[C@@H](N)Cc1ccccc1)C(C)C)[C@@H](C)CC)C(=O)O [SSX2 41-49 (K41F, A42V, V49I)]
- Relative affinity (1/RA) (HLA-A*0201 [1]): 1.6
- Cross-reactivity and fct avidity (native to analogs)* [2]: 0.3
- cytotoxicity against human tumor cells, in words (624.38 melanoma cells): increased cytotoxicity against human tumor cells

Compound: Ala substitution: PRAME425-433 analog with Ala at the PΩ anchor position (SLLQHLIGA; UniProt P78395 425-433, looked up, variant L433A)
- ED50 change relative to native peptide (HLA-A*0201 [3]; printed as reduced / less (lower affinity)): more than 10 fold

Compound: FASEKIFYV [SSX2 41-49 (K41F)]
- Relative affinity (1/RA) (HLA-A*0201 [1]): 1.5
- Cross-reactivity and fct avidity (native to analogs)* [2]: 0.3
- in vivo cytotoxicity (% specific lysis), in words [4]: increased activity relative to the natural peptide

Compound: I297Nva: PSMA288-297 analog with Nva for Ile at position 297 [Peptide I297Nva]
- IFN-γ ELISPOT response against native epitope, in words [5]: slightly higher (but significant) activity than the native peptide

Compound: L158V C165V: NY-ESO-1 157-165 analog, L158V and C165V (SVLMWITQV; UniProt P78358 157-165, looked up, variant L158V C165V)
- in vivo cytotoxicity (% specific lysis), in words [6]: effect in the same range with wild-type peptide or the C165V mutant
- IFN-gamma production upon ex vivo re-stimulation, in words [7]: increased amounts of IFN-gamma

Compound: Lys P1 analog: PRAME425-433 analog with Lys for Ser at P1 (KLLQHLIGL)
- IFN-γ elicited, % of the native peptide ([8]; analog peptide at approximately 0.3 μM): 40%

Compound: S157F L158V C165V: NY-ESO-1 157-165 analog, triple mutant (FVLMWITQV; UniProt P78358 157-165, looked up, variant S157F L158V C165V)
- IFN-gamma production upon ex vivo re-stimulation, in words [7]: increased amounts of IFN-gamma

Compound: S157K L158V C165V: NY-ESO-1 157-165 analog, triple mutant (KVLMWITQV; UniProt P78358 157-165, looked up, variant S157K L158V C165V)
- in vivo cytotoxicity (% specific lysis), in words [6]: effect in the same range with wild-type peptide or the C165V mutant

Compound: SLLQHLIGL [PRAME 425-433, reference compound]
- ex vivo cytotoxicity against A2+ PRAME+ 624.38 cells, in words [9]: able to lyse human tumor cells

Compound: SNvaLMWITQV (S[Nva]LMWITQV) [Nyeso-1 157-165 (L158Nva, C165V))]
- in vivo cytotoxicity (% specific lysis), in words [6]: substantial, constant cytotoxicity
- IFN-gamma production upon ex vivo re-stimulation, in words [7]: large levels of IFN-gamma more rapidly

Compound: S{Nva}LQHLIG{Nle} (S[Nva]LQHLIG[Nle]) [Prame 425-433 (L426Nva, L433Nle)]
- affinity (ED50) / binding characteristics relative to native, in words (HLA-A*0201 [3]): similar, somewhat improved binding characteristics
- IFN-γ production (cross-reactivity) relative to native, in words ([8]; PRAME425-433 analogs at approximately 0.3 μM): significant level of cross-reactivity
- IFN-γ production by splenocytes (ELISA), in words ([10]; listed as L426Nva L433Nle): greater response
- IFN-γ production by splenocytes (ELISA), in words ([10]; listed as PRAME425-433 L426Nva L433Nle): significant enhancement of IFN-γ production
- in vivo cytotoxicity against native epitope, in words [11]: cytotoxic immunity against native epitope coated cells; also recorded: capable of expanding the immunity against the native epitope
- expansion of native epitope-specific T cells (tetramer), in words [12]: significantly higher than in mice primed with plasmid and boosted with the negative control peptide
- ex vivo cytotoxicity against A2+ PRAME+ 624.38 cells, in words [9]: cytotoxic immunity against a human tumor cell line; also recorded: significant cytotoxicity against human tumor cells expressing A2 (624.38)
- ex vivo cytotoxicity against A2- 624.28 control cells, in words ([9]; negative control cells): no significant activity

Compound: T{Nva}LQHLIG{Nle} (T[Nva]LQHLIG[Nle]) [S425T L426Nva L433Nle]
- IFN-γ production by splenocytes (ELISA), in words [10]: ex vivo cytokine production
- in vivo cytotoxicity against native epitope, in words [11]: capable of expanding the immunity against the native epitope
- expansion of native epitope-specific T cells (tetramer), in words [12]: significantly higher than in mice primed with plasmid and boosted with the negative control peptide

Compound: YASEKIFYV [SSX2 41-49 (K41Y)]
- Relative affinity (1/RA) (HLA-A*0201 [1]): 1.7
- Cross-reactivity and fct avidity (native to analogs)* [2]: 3
- in vivo cytotoxicity (% specific lysis), in words [4]: increased activity relative to the natural peptide

Compound: {Abu}LPSIPVHPI [Peptide G288Abu]
- IFN-γ ELISPOT response against native epitope, in words [5]: slightly higher (but significant) activity than the native peptide
